Entries after “also recorded” stand apart in the source; their conditions may differ.
Columns and labels:
[1] = system: cardiomyocytes in the intact heart; assay: Langendorff perfused heart: apoptosis (TUNEL, genomic DNA fragmentation); format: in vivo, rat; conditions: for apoptosis in cardiomyocytes of the perfused heart (TUNEL): 0.1 μM ISO, peptides 25 μM together with ISO
From the text: Analysis of Apoptosis: The terminal deoxyribonucleotide transferase-mediated dUTP nick-end labeling (TUNEL) assay was used to detect in situ DNA fragmentation, using the In Situ Cell Death Detection Kit (Roche) as described previously (Ding et al., “Functional Role of Phosphodiesterase 3 in Cardiomyocyte Apoptosis: Implication in Heart Failure,” Circulation 111:2469-2476 (2005), which are hereby incorporated by reference in their entirety). In addition, the cells were stained for cardiomyocyte-specific sarcomeric α-actinin with the antibody EF-53 to distinguish cardiomyocytes from contaminating fibroblasts; and only EF-53 positive cells were counted. Three independent experiments were performed and an average of 1,000 EF-53 positive cells from random fields were analyzed.
DNA Electrophoresis: Total cellular DNA was isolated from untreated and treated cells by lysis in 10 mM Tris-HCl, pH 7.8; 1 mM, EDTA, 10 mM NaCl, 1% (w/v) SDS and 1 mg/ml proteinase K at 60° C. for 2 hours. The lysate was extracted twice each with phenol-choloroform (1:1, v/v) and chloroform, followed by precipitation with ethanol. The precipitate was collected by centrifugation, washed once in 70% ethanol, and resuspended in TE containing 1 mg/ml RNase at 37° C. for 30 min. DNA was resolved by electrophoresis in 2.0% agarose gels containing ethidium bromide.
In Vivo Experimental Langendorff Model: Male Sprague-Dawley rats weighing 250-300 g (Charles River, Boston, Mass.) were used in this study; the protocol is based on that described by Tompkins et al., “Mitochondrial Dysfunction in Cardiac Ischemia-Reperfusion Injury: ROS From Complex I, Without Inhibition,” Biochim Biophys Acta 1762:223-231 (2006), which is hereby incorporated by reference in its entirety, with minor modification. The rats were fed a standard rat chow and had water ad libitum. All experiments were approved by the University of Rochester Institutional Animal Care and Use Committee. Rats were given two subcutaneous injections of isoproterenol (ISO) (0.01 mg/kg), 6 hours apart, then anesthetized with freshly prepared Avertin (2,2,2-tribromoethanol, […] injected intraperitoneally), and treated with heparin (5000 U/kg), i.p., to protect the heart against microthrombi. The aorta was cannulated in situ with a 22-gauge needle filled with warm Krebs-Henseleit (KH) buffer. The heart was rapidly transferred (<10 s.) to a perfusion apparatus, and retrograde (Langendorff) perfusion begun with 37° C. KH buffer gassed with 95% O2 plus 5% CO2, in constant flow mode (12 ml/min). […] Hemodynamics and heart rate were recorded by inserting a water-filled balloon connected to a transducer (Radnoti LLC, model no. 159904B) into the left ventricle. […]

isolated perfused heart = assay: Langendorff perfused heart: left ventricle contractile function and heart rate; format: in vivo, rat; conditions: for left ventricle contractile function (systolic pressure, developed pressure, dp/dt, -dp/dt): peptide 25 μM with 0.1 μM isoproterenol, vs isoproterenol alone
From the text: In Vivo Experimental Langendorff Model: Male Sprague-Dawley rats weighing 250-300 g (Charles River, Boston, Mass.) were used in this study; the protocol is based on that described by Tompkins et al., “Mitochondrial Dysfunction in Cardiac Ischemia-Reperfusion Injury: ROS From Complex I, Without Inhibition,” Biochim Biophys Acta 1762:223-231 (2006), which is hereby incorporated by reference in its entirety, with minor modification. The rats were fed a standard rat chow and had water ad libitum. All experiments were approved by the University of Rochester Institutional Animal Care and Use Committee. Rats were given two subcutaneous injections of isoproterenol (ISO) (0.01 mg/kg), 6 hours apart, then anesthetized with freshly prepared Avertin (2,2,2-tribromoethanol, […] injected intraperitoneally), and treated with heparin (5000 U/kg), i.p., to protect the heart against microthrombi. The aorta was cannulated in situ with a 22-gauge needle filled with warm Krebs-Henseleit (KH) buffer. The heart was rapidly transferred (<10 s.) to a perfusion apparatus, and retrograde (Langendorff) perfusion begun with 37° C. KH buffer gassed with 95% O2 plus 5% CO2, in constant flow mode (12 ml/min). Perfusion was performed using 0.1 μM ISO or KH buffer as a control; the hBVR-derived peptides KKRILHC^281 (25 μM) or KYCCSRK^296 (25 μM) were included in perfusion medium with or without ISO. Hemodynamics and heart rate were recorded by inserting a water-filled balloon connected to a transducer (Radnoti LLC, model no. 159904B) into the left ventricle. The transducer was connected to a data acquisition system (DATAQ Instrument, Akron Ohio, Model: DI-205). At the end of each experiment, the heart was cut into 5 μm sections for TUNEL study or homogenized for western blots.
The effect of peptides on the integrity of the heart was also examined in the perfusion system, by measuring left ventricle contractile function in the presence of isoproterenol as a function of time.

BVR = target: T1, BVR (Rattus norvegicus, UniProt P46844); assay: Langendorff perfused heart: BVR activity (biliverdin to bilirubin, pH 6.7); format: in vivo
T1 construct: Cardiomyocytes and heart tissue samples were lysed in buffer containing 100 mM sodium phosphate pH 7.4; from tissue; host or cells: isolated Langendorff-perfused rat heart, lysate
T1 sequence (P46844 3-295): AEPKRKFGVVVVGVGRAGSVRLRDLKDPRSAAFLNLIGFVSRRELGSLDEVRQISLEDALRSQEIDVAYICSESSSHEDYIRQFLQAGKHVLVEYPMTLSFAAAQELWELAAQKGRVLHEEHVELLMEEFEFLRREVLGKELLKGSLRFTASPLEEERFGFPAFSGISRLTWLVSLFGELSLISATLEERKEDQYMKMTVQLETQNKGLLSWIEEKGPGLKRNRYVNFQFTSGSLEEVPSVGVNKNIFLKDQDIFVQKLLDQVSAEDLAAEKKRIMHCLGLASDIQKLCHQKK
From the text: In Vivo Experimental Langendorff Model: Male Sprague-Dawley rats weighing 250-300 g (Charles River, Boston, Mass.) were used in this study; the protocol is based on that described by Tompkins et al., “Mitochondrial Dysfunction in Cardiac Ischemia-Reperfusion Injury: ROS From Complex I, Without Inhibition,” Biochim Biophys Acta 1762:223-231 (2006), which is hereby incorporated by reference in its entirety, with minor modification. The rats were fed a standard rat chow and had water ad libitum. All experiments were approved by the University of Rochester Institutional Animal Care and Use Committee. Rats were given two subcutaneous injections of isoproterenol (ISO) (0.01 mg/kg), 6 hours apart, then anesthetized with freshly prepared Avertin (2,2,2-tribromoethanol, […] injected intraperitoneally), and treated with heparin (5000 U/kg), i.p., to protect the heart against microthrombi. The aorta was cannulated in situ with a 22-gauge needle filled with warm Krebs-Henseleit (KH) buffer. The heart was rapidly transferred (<10 s.) to a perfusion apparatus, and retrograde (Langendorff) perfusion begun with 37° C. […] Hemodynamics and heart rate were recorded by inserting a water-filled balloon connected to a transducer (Radnoti LLC, model no. 159904B) into the left ventricle. […]
Measurement of BVR Activity: Cardiomyocytes and heart tissue samples were lysed in buffer containing 100 mM sodium phosphate pH 7.4, 1% Nonidet-P-40, 10% glycerol, 0.2 mM dithiothoeitol, 10 mM NaF, protease inhibitor mixture (10 μg/ml aprotinin, 10 μg/ml leupeptin, 10 μg/ml pepstatin, and 0.1 mM phenylmethylsulfonyl fluoride). BVR activity was measured at pH 6.7 as described previously (Huang et al., “Detection of 10 Variants of Biliverdin Reductase in Rat Liver by Two-Dimensional Gel Electrophoresis,”J Biol Chem 264:7844-7849 (1989), which is hereby incorporated by reference in its entirety). The rate of conversion of biliverdin to bilirubin was determined as the increase in absorbance at 450 nm at 25° C. Specific activity is expressed as nanomoles of bilirubin/min/mg of protein. […]

[2] = peptide 25 μM with isoproterenol

For CC(C)NCC(O)c1ccc(O)c(O)c1 (stereo not shown) [isoproterenol], the “apoptosis in cardiomyocytes of the perfused heart (TUNEL)” value (“apoptosis in cardiomyocytes” below) [1] was “increased apoptosis” and the “heart rate, left ventricular systolic pressure, development pressure, dp/dt, -dp/dt over the course of the experiment” value (isolated perfused heart; 0.1 μM isoproterenol perfusion) was “declined”.

With “KKRILHC (biliverdin reductase peptide) [KKRILHC^281]” the BVR activity (BVR; peptide 25 μM, whether ISO was present or not) was “blocked the activity of BVR”, the “apoptosis in cardiomyocytes” value [1] was “increase in apoptosis; also recorded: significant increases in apoptosis” and the “fragmentation of genomic DNA from perfused heart” value ([1]; peptide 25 μM with ISO) was “fragmentation is detectable”. The “left ventricle contractile function (systolic pressure, developed pressure, dp/dt, -dp/dt)” value (isolated perfused heart) was “the rate of decline was increased; also recorded: significantly diminished cardiac function”, the “change in heart rate observed with isoproterenol alone” value (isolated perfused heart; [2]) was “Neither peptide affected the change in heart rate” and the “time after initiating perfusion by which the increased rate of decline was observed” value (isolated perfused heart; [2]) was no more than 30 min.

In the case of “KYCCSRK (biliverdin reductase peptide) [KYCCSRK^296]”, the BVR activity (BVR; peptide 25 μM alone) is reported as “increased BVR activity”, the BVR reductase activity (BVR; peptide 25 μM and 0.1 μM ISO) is reported as “significant activation” and the “apoptosis in cardiomyocytes” value [1] is reported as “decreased apoptosis; also recorded: nearly complete reduction in apoptosis”. The “left ventricle contractile function (systolic pressure, developed pressure, dp/dt, -dp/dt)” value (isolated perfused heart) was “slowed the decrease in contractile function; also recorded: improved cardiac function” and the “change in heart rate observed with isoproterenol alone” value (isolated perfused heart; [2]) was “Neither peptide affected the change in heart rate”.
